According to patent publication US11464770B2, “Anticancer pharmaceutical composition” (NATIONAL CANCER CENTER, priority 2016, dated 2022):
pIC50: −log10 of the molar value. Where two headings read alike, the source gives them in different places.

What was measured:
renal cancer cell lines = assay: Cell based assay, cell viability (CellTiter-Glo), renal cancer cell lines; details: Homo sapiens; ACHN cells
Method in brief: (§1)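 Each commercial line was plated and allowed 24 h to settle at constant temperature. Compound exposure ran 72 h at final concentrations spanning 0 to 2 μM. Cell viability was then determined by luminescent ATP detection.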

[1] = tested on: colorectal cancer cell lines (e.g. DLD-1, HCT 116, SW620, HCT-15, HCT-8, RKO); assay: Cell based assay, cell viability (CellTiter-Glo), colorectal cancer cell lines
Method in brief: as §1

neuroblastoma cell lines = assay: Cell based assay, cell viability (CellTiter-Glo), neuroblastoma cell lines; details: Homo sapiens; SH-SY5Y cell line
Method in brief: as §1

[2] = Homo sapiens, DLD-1, 72 hours treatment, read-out: IC50, colorectal cancer cell line DLD-1
[3] = Homo sapiens, HCT 116, 72 hours treatment, read-out: IC50, colorectal cancer cell line HCT 116
[4] = Homo sapiens, HCT-8, 72 hours treatment, read-out: IC50, colorectal cancer cell line HCT-8
[5] = Homo sapiens, HCT-15, 72 hours treatment, read-out: IC50, colorectal cancer cell line HCT-15
[6] = Homo sapiens, HT-29, 72 hours treatment, read-out: IC50, colorectal cancer cell line HT-29
[7] = Homo sapiens, LoVo, 72 hours treatment, read-out: IC50, colorectal cancer cell line LoVo
[8] = Homo sapiens, SW480, 72 hours treatment, read-out: IC50, colorectal cancer cell line SW480
[9] = Homo sapiens, SW-620, SW620, 72 hours treatment, read-out: IC50, colorectal cancer cell line SW620
[10] = RKO, 72 hours treatment, read-out: IC50, colorectal cancer cell line RKO
[11] = Homo sapiens, DLD-1 cells, 72 hours treatment, read-out: IC50, colorectal cancer cell line DLD-1
[12] = Homo sapiens, HCT 116 cells, 72 hours treatment, read-out: IC50, colorectal cancer cell line HCT 116
[13] = Homo sapiens, HCT-8 cells, 72 hours treatment, read-out: IC50, colorectal cancer cell line HCT-8
[14] = Homo sapiens, HCT-15 cells, 72 hours treatment, read-out: IC50, colorectal cancer cell line HCT-15
[15] = Homo sapiens, HT-29 cells, 72 hours treatment, read-out: IC50, colorectal cancer cell line HT-29
[16] = Homo sapiens, LoVo cells, 72 hours treatment, read-out: IC50, colorectal cancer cell line LoVo
[17] = Homo sapiens, RKO cells, 72 hours treatment, read-out: IC50, colorectal cancer cell line RKO
[18] = Homo sapiens, SW480 cells, 72 hours treatment, read-out: IC50, colorectal cancer cell line SW480
[19] = Homo sapiens, SW-620, SW620 cells, 72 hours treatment, read-out: IC50, colorectal cancer cell line SW620

Row | pIC50 (renal cancer cell lines) | pIC50 [1, 2] | pIC50 [1, 3] | pIC50 [1, 4] | pIC50 [1, 5] | pIC50 [1, 6] | pIC50 [1, 7] | pIC50 [1, 8] | pIC50 [1, 9] | pIC50 [1, 10] | pIC50 (neuroblastoma cell lines) | pIC50 [1, 11] | pIC50 [1, 12] | pIC50 [1, 13] | pIC50 [1, 14] | pIC50 [1, 15] | pIC50 [1, 16] | pIC50 [1, 17] | pIC50 [1, 18] | pIC50 [1, 19] | Compound
1 | < 5.70 | < 5.70 | < 5.70 | < 5.70 | < 5.70 | < 5.00 | < 5.70 | < 5.70 | < 5.70 | < 5.70 | < 5.70 | – | – | – | – | – | – | – | – | – | CC(=O)c1c([S+]([O-])Cc2ccc([N+](=O)[O-])cc2)[nH]c2c(Cl)ccc(Cl)c2c1=O (stereo not drawn) [Compound 57, 3-acetyl-5,8-dichloro-2-((4-nitrobenzyl)sulfinyl)quinolin-4(1H)-one]
2 | < 5.70 | 6.05 | 5.95 | 5.82 | 5.90 | < 5.00 | < 5.70 | < 5.70 | 5.87 | 5.81 | < 5.70 | – | – | – | – | – | – | – | – | – | COc1cc(C[S+]([O-])c2[nH]c3c(Br)ccc(Cl)c3c(=O)c2C(C)=O)cc(OC)c1 (stereo not drawn) [Compound 59, 3-acetyl-8-bromo-5-chloro-2-((3,5-dimethoxybenzyl)sulfinyl)quinolin-4(1H)-one]
3 | < 5.70 | 5.83 | 5.71 | < 5.70 | 5.74 | < 5.00 | < 5.70 | < 5.70 | < 5.70 | < 5.70 | < 5.70 | – | – | – | – | – | – | – | – | – | CC(=O)c1c([S+]([O-])Cc2ccc(C(C)(C)C)cc2)[nH]c2c(Br)ccc(Cl)c2c1=O (stereo not drawn) [Compound 60, 3-acetyl-8-bromo-2-((4-(tert-butyl)benzyl)sulfinyl)-5-chloroquinolin-4(1H)-one]
4 | < 5.70 | – | 5.86 | 5.79 | 5.87 | < 5.00 | < 5.70 | < 5.70 | 5.78 | 5.77 | < 5.70 | – | – | – | – | – | – | – | – | – | CC(=O)c1c([S+]([O-])Cc2ccc([S+]([O-])C(F)(F)F)cc2)[nH]c2c(Br)ccc(Cl)c2c1=O (stereo not drawn) [Compound 64, 3-acetyl-8-bromo-5-chloro-2-((4-((trifluoromethyl)sulfinyl)benzyl)sulfinyl)quinolin-4(1H)-one]
5 | < 5.70 | 6.04 | 5.88 | 5.81 | 5.92 | < 5.00 | < 5.70 | < 5.70 | 5.77 | 5.79 | < 5.70 | – | – | – | – | – | – | – | – | – | CC(=O)c1c([S+]([O-])Cc2ccc(C(F)(F)F)cc2)[nH]c2c(Br)ccc(Cl)c2c1=O (stereo not drawn) [Compound 70, 3-acetyl-8-bromo-5-chloro-2-((4-(trifluoromethyl)benzyl)sulfinyl)quinolin-4(1H)-one]
6 | < 5.70 | 5.94 | 5.76 | < 5.70 | 5.79 | < 5.00 | < 5.70 | < 5.70 | < 5.70 | < 5.70 | < 5.70 | – | – | – | – | – | – | – | – | – | CC(=O)c1c([S+]([O-])Cc2ccc(OC(F)(F)F)cc2)[nH]c2c(Br)ccc(Cl)c2c1=O (stereo not drawn) [Compound 71, 3-acetyl-8-bromo-5-chloro-2-((4-(trifluoromethoxy)benzyl)sulfinyl)quinolin-4(1H)-one]
7 | < 5.70 | 6.13 | 6.03 | 5.91 | 6.00 | < 5.70 | 5.72 | 5.85 | 5.91 | 5.87 | < 5.70 | – | – | – | – | – | – | – | – | – | CC(=O)c1c([S+]([O-])Cc2ccc(C(F)(F)F)o2)[nH]c2c(Br)ccc(Cl)c2c1=O (stereo not drawn) [Compound 72, 3-acetyl-8-bromo-5-chloro-2-(((5-(trifluoromethyl)furan-2-yl)methyl)sulfinyl)quinolin-4(1H)-one]
8 | < 5.70 | 5.88 | 5.73 | < 5.70 | < 5.70 | < 5.00 | < 5.70 | < 5.70 | < 5.70 | < 5.70 | < 5.70 | – | – | – | – | – | – | – | – | – | CC(=O)c1c([S+]([O-])Cc2ccc(C#N)cc2)[nH]c2c(Br)ccc(Cl)c2c1=O (stereo not drawn) [Compound 73, 4-(((3-acetyl-8-bromo-5-chloro-4-oxo-1,4-dihydroquinolin-2-yl)sulfinyl)methyl)benzonitrile]
9 | < 5.70 | 5.99 | 5.79 | 5.70 | 5.82 | < 5.00 | < 5.70 | < 5.70 | 5.75 | < 5.70 | < 5.70 | – | – | – | – | – | – | – | – | – | CC(=O)c1c([S+]([O-])Cc2c(F)cccc2Cl)[nH]c2c(Br)ccc(Cl)c2c1=O (stereo not drawn) [Compound 74, 3-acetyl-8-bromo-5-chloro-2-((2-chloro-6-fluorobenzyl)sulfinyl)quinolin-4(1H)-one]
10 | < 5.70 | 6.06 | 5.90 | 5.75 | 5.86 | < 5.00 | < 5.70 | 5.78 | 5.75 | 5.88 | < 5.70 | – | – | – | – | – | – | – | – | – | COc1cc(S(F)(F)(F)(F)F)ccc1C[S+]([O-])c1[nH]c2c(Br)ccc(Cl)c2c(=O)c1C(C)=O (stereo not drawn) [Compound 75, 3-acetyl-8-bromo-5-chloro-2-((2-methoxy-4-(pentafluoro--sulfanyl)benzyl)sulfinyl)quinolin-4(1H)-one]
11 | < 5.70 | 5.96 | 5.80 | < 5.70 | 5.79 | < 5.00 | < 5.70 | < 5.70 | < 5.70 | 5.82 | < 5.70 | – | – | – | – | – | – | – | – | – | CC(=O)c1c([S+]([O-])Cc2cc(F)cc(S(F)(F)(F)(F)F)c2)[nH]c2c(Br)ccc(Cl)c2c1=O (stereo not drawn) [Compound 76, 3-acetyl-8-bromo-5-chloro-2-((3-fluoro-5-(pentafluoro--sulfanyl)benzyl)sulfinyl)quinolin-4(1H)-one]
12 | < 5.70 | 5.89 | 5.71 | < 5.70 | 5.80 | < 5.00 | < 5.70 | < 5.70 | 5.75 | 5.82 | < 5.70 | – | – | – | – | – | – | – | – | – | CC(=O)c1c([S+]([O-])Cc2c(F)c(F)c(F)c(F)c2F)[nH]c2c(Br)ccc(Cl)c2c1=O (stereo not drawn) [Compound 78, 3-acetyl-8-bromo-5-chloro-2-(((perfluorophenyl)methyl)sulfinyl)quinolin-4(1H)-one]
13 | < 5.70 | – | – | – | – | – | – | – | – | – | 5.91 | 5.86 | 5.74 | 5.73 | 5.79 | < 5.00 | < 5.70 | 5.99 | < 5.70 | < 5.70 | CC(=O)c1c([S+]([O-])Cc2ccc(I)cc2)[nH]c2c(Cl)ccc(Cl)c2c1=O (stereo not drawn) [Compound 83, 3-acetyl-5,8-dichloro-2-((4-iodobenzyl)sulfinyl)quinolin-4(1H)-one]
14 | 5.86 | – | – | – | – | – | – | – | – | – | 6.22 | 6.03 | 5.94 | 5.89 | 5.82 | < 5.00 | 5.71 | 5.90 | 5.81 | 5.91 | CC(=O)c1c([S+]([O-])Cc2cccnc2)[nH]c2c(Br)ccc(Cl)c2c1=O (stereo not drawn) [Compound 84, 3-acetyl-8-bromo-5-chloro-2-((pyridin-3-ylmethyl)sulfinyl)quinolin-4(1H)-one]
15 | 5.87 | – | – | – | – | – | – | – | – | – | 6.30 | 5.96 | 6.07 | 5.95 | 5.90 | < 5.00 | 5.94 | 6.05 | 5.90 | 6.13 | Cc1cc(C[S+]([O-])c2[nH]c3c(Cl)ccc(Cl)c3c(=O)c2C(=O)C(C)C)no1 (stereo not drawn) [Compound 86, 5,8-dichloro-3-isobutyryl-2-(((5-methylisoxazol-3-yl)methyl)sulfinyl)quinolin-4(1H)-one]
16 | < 5.70 | – | – | – | – | – | – | – | – | – | 5.98 | 5.79 | 5.80 | < 5.70 | < 5.70 | < 5.00 | < 5.70 | 5.76 | < 5.70 | 5.77 | COC(=O)c1ccc(C[S+]([O-])c2[nH]c3c(Cl)ccc(Cl)c3c(=O)c2C(C)=O)o1 (stereo not drawn) [Compound 89, methyl 5-(((3-acetyl-5,8-dichloro-4-oxo-1,4-dihydroquinolin-2-yl)sulfinyl)methyl)furan-2-carboxylate]
17 | 5.92 | – | – | – | – | – | – | – | – | – | 6.32 | 5.95 | 6.12 | 6.09 | 5.97 | < 5.00 | 6.04 | 6.04 | 5.92 | 6.19 | Cc1cc(C[S+]([O-])c2[nH]c3c(Br)ccc(Cl)c3c(=O)c2C(=O)C(C)C)no1 (stereo not drawn) [Compound 95, 8-bromo-5-chloro-3-isobutyryl-2-(((5-methylisoxazol-3-yl)methyl)sulfinyl)quinolin-4(1H)-one]
